Results: the supplement of paper PMC6965134
± gives the standard deviation of the averaged measurements.

Assay: TIMS collisional cross section (CCS, N2) of the lipid ion; higher = larger ion cross section
Conditions: ionization mode: negative, one isomer drawn
Experimental: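 Lipid extracts of human plasma (NIST SRM 1950), mouse liver or HeLa cells were separated by nanoflow C18 LC (30 min gradient) and analysed by TIMS-PASEF on a timsTOF Pro. Ion mobility was calibrated with the Agilent tuning mix (negative mode ions) and converted to collisional cross sections (Mason–Schamp, N2).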

[1] = sample type: Mouse Liver, ion (formula + adduct): [C42H76NO8P+AcO] 1-
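Further: lipids from MTBE extraction, five replicate injections per sample, 100 ms TIMS ramp spanning 0.6–1.95 Vs/cm², lipid identity assigned from PASEF MS/MS spectra.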

With `CCCCC/C=C\C/C=C\C/C=C\C/C=C\CCCC(=O)O[C@H](COC(=O)CCCCCCCCCCCC)COP(=O)([O-])OCC[N+](C)(C)C` [PC 13:0@_20:4] the “TIMS collisional cross section” value (sample type: Human plasma, ion (formula + adduct): [C41H74NO8P-H] 1-) was 289.2 Å², the “TIMS collisional cross section” value (sample type: Mouse Liver, ion (formula + adduct): [C41H74NO8P-CH3] 1-) was 267.1 Å² and the “TIMS collisional cross section” value (sample type: Mouse Liver, ion (formula + adduct): [C41H74NO8P-H] 1-) was 272.3 Å².
In the case of `CCCCCC/C=C\CCCCCCCC(=O)O[C@H](COC(=O)CCCCCCCCCCCCC)COP(=O)([O-])OCC[N+](C)(C)C` [PC 14:0@_16:1], the “TIMS collisional cross section” value (sample type: Mouse Liver, ion (formula + adduct): [C38H74NO8P+HCOO] 1-) is reported as 280.9 Å².
With `CCCCCCC/C=C\CCCCCCCC(=O)O[C@H](COC(=O)CCCCCCCCCCCCC)COP(=O)([O-])OCC[N+](C)(C)C` [PC 14:0@_17:1] the “TIMS collisional cross section” value (sample type: Mouse Liver, ion (formula + adduct): [C39H76NO8P-CH3] 1-) was 265 Å².
In the case of `CCCCCC/C=C\CCCCCCCCCC(=O)O[C@H](COC(=O)CCCCCCCCCCCCC)COP(=O)([O-])OCC[N+](C)(C)C` [PC 14:0@_18:1], the “TIMS collisional cross section” value (sample type: Human plasma, ion (formula + adduct): [C40H78NO8P+HCOO] 1-) is reported as 286 Å².
In the case of `CC/C=C\C/C=C\C/C=C\CCCCCCCC(=O)O[C@H](COC(=O)CCCCCCCCCCCCC)COP(=O)([O-])OCC[N+](C)(C)C` [PC 14:0@_18:3], the “TIMS collisional cross section” value (sample type: Human plasma, ion (formula + adduct): [C40H74NO8P+HCOO] 1-) is reported as 284.9 Å².
In the case of `CC/C=C\C/C=C\C/C=C\C/C=C\CCCCC(=O)O[C@H](COC(=O)CCCCCCCCCCCCC)COP(=O)([O-])OCC[N+](C)(C)C` [PC 14:0@_18:4], the “TIMS collisional cross section” value (sample type: Human plasma, ion (formula + adduct): [C40H72NO8P+HCOO] 1-) is reported as 277.9 Å².
With `CCCCC/C=C\C/C=C\C/C=C\C/C=C\CCCC(=O)O[C@H](COC(=O)CCCCCCCCCCCCC)COP(=O)([O-])OCC[N+](C)(C)C` [PC 14:0@_20:4] the “TIMS collisional cross section” value (sample type: Mouse Liver, ion (formula + adduct): [C42H76NO8P-H] 1-) was 272.8 Å².
With `CC/C=C\C/C=C\C/C=C\C/C=C\C/C=C\C/C=C\CCC(=O)O[C@H](COC(=O)CCCCCCCCCCCCC)COP(=O)([O-])OCC[N+](C)(C)C` [PC 14:0@_22:6] the “TIMS collisional cross section” value (sample type: Mouse Liver, ion (formula + adduct): [C44H76NO8P-H] 1-) was 277.87 ± 0.55 Å².
With `CCCCCCCCCCCCCC(=O)OC[C@H](COP(=O)([O-])OCC[N+](C)(C)C)OC(=O)CCCCCCCCCCCCC` [PC 14:0_14:0] the “TIMS collisional cross section” value (sample type: Human plasma, ion (formula + adduct): [C36H72NO8P+HCOO] 1-) was 277.1 Å².
For `CCCCCCCCCCCCCCCC(=O)O[C@H](COC(=O)CCCCCCCCCCCCC)COP(=O)([O-])OCC[N+](C)(C)C` [PC 14:0_16:0@], the “TIMS collisional cross section” value (sample type: Mouse Liver, ion (formula + adduct): [C38H76NO8P+HCOO] 1-) was 283.8 Å².
With `CCCCCCCCCCCCCCCC(=O)O[C@H](COC(=O)CCCCCCCCCCCCC)COP(=O)([O-])OCC[N+](C)(C)C` [PC 14:0_16:0] the “TIMS collisional cross section” value (sample type: Human plasma, ion (formula + adduct): [C38H76NO8P+HCOO] 1-) was 282.7 Å².
With `CCCCCC/C=C\CCCCCCCC(=O)O[C@H](COC(=O)CCCCCCCCCCCCC)COP(=O)([O-])OCC[N+](C)(C)C` [PC 14:0_16:1] the “TIMS collisional cross section” value (sample type: Human plasma, ion (formula + adduct): [C38H74NO8P+HCOO] 1-) was 280.9 Å².
In the case of `CCCCCCCCCCCCCCCCCC(=O)O[C@H](COC(=O)CCCCCCCCCCCCC)COP(=O)([O-])OCC[N+](C)(C)C` [PC 14:0_18:0], the “TIMS collisional cross section” value (sample type: Human plasma, ion (formula + adduct): [C40H80NO8P+HCOO] 1-) is reported as 287.7 Å².
For `CCCCCC/C=C\CCCCCCCCCC(=O)O[C@H](COC(=O)CCCCCCCCCCCCC)COP(=O)([O-])OCC[N+](C)(C)C` [PC 14:0_18:1], the “TIMS collisional cross section” value (sample type: Mouse Liver, ion (formula + adduct): [C40H78NO8P+HCOO] 1-) was 286 Å².
With `CC/C=C\C/C=C\C/C=C\CCCCCCCC(=O)O[C@H](COC(=O)CCCCCCCCCCCCC)COP(=O)([O-])OCC[N+](C)(C)C` [PC 14:0_18:3] the “TIMS collisional cross section” value (sample type: Mouse Liver, ion (formula + adduct): [C40H74NO8P+HCOO] 1-) was 284 Å².
With `CCCCC/C=C\C/C=C\C/C=C\C/C=C\CCCC(=O)O[C@H](COC(=O)CCCCCCCCCCCCC)COP(=O)([O-])OCC[N+](C)(C)C` [PC 14:0_20:4@] the “TIMS collisional cross section” value [1] was 288.1 Å².
For `CCCCC/C=C\C/C=C\C/C=C\C/C=C\CCCC(=O)O[C@H](COC(=O)CCCCCCCCCCCCC)COP(=O)([O-])OCC[N+](C)(C)C` [PC 14:0_20:4], the “TIMS collisional cross section” value (sample type: Human plasma, ion (formula + adduct): [C42H76NO8P+HCOO] 1-) was 288.2 Å² and the “TIMS collisional cross section” value [1] was 290.4 Å².
In the case of `CCCC/C=C\CCCCCCCC(=O)OC[C@H](COP(=O)([O-])OCC[N+](C)(C)C)OC(=O)CCC/C=C\C/C=C\C/C=C\C/C=C\CCCCC` [PC 14:1@_20:4], the “TIMS collisional cross section” value (sample type: Human plasma, ion (formula + adduct): [C42H74NO8P-CH3] 1-) is reported as 268.8 Å².
For `CC/C=C\C/C=C\C/C=C\C/C=C\C/C=C\CCCC(=O)O[C@H](COC(=O)CCCCCCC/C=C\CCCC)COP(=O)([O-])OCC[N+](C)(C)C` [PC 14:1@_20:5], the “TIMS collisional cross section” value (sample type: Mouse Liver, ion (formula + adduct): [C42H72NO8P-H] 1-) was 269.9 Å².
In the case of `CCCC/C=C\CCCCCCCC(=O)OC[C@H](COP(=O)([O-])OCC[N+](C)(C)C)OC(=O)CCCCCCCCCCCCCCC` [PC 14:1_16:0], the “TIMS collisional cross section” value (sample type: Mouse Liver, ion (formula + adduct): [C38H74NO8P+Cl] 1-) is reported as 268.8 Å².
For `CCCC/C=C\CCCCCCCC(=O)OC[C@H](COP(=O)([O-])OCC[N+](C)(C)C)OC(=O)CCCCCCC/C=C\CCCCCC` [PC 14:1_16:1@], the “TIMS collisional cross section” value (sample type: Human plasma, ion (formula + adduct): [C38H72NO8P+HCOO] 1-) was 278.6 Å².
For `CCCCCC/C=C\CCCCCCCC(=O)O[C@H](COC(=O)CCCCCCCCCCCCCC)COP(=O)([O-])OCC[N+](C)(C)C` [PC 15:0@_16:1], the “TIMS collisional cross section” value (sample type: Mouse Liver, ion (formula + adduct): [C39H76NO8P+AcO] 1-) was 285.4 Å².
In the case of `CCCCC/C=C\C/C=C\C/C=C\CCCCC(=O)O[C@H](COC(=O)CCCCCCCCCCCCCC)COP(=O)([O-])OCC[N+](C)(C)C` [PC 15:0@_18:3], the “TIMS collisional cross section” value (sample type: Human plasma, ion (formula + adduct): [C41H76NO8P+HCOO] 1-) is reported as 287.1 Å².
For `CCCCC/C=C\C/C=C\C/C=C\C/C=C\CCCC(=O)O[C@H](COC(=O)CCCCCCCCCCCCCC)COP(=O)([O-])OCC[N+](C)(C)C` [PC 15:0@_20:4], the “TIMS collisional cross section” value (sample type: Human plasma, ion (formula + adduct): [C43H78NO8P+OAcO] 1-) was 295.5 Å² and the “TIMS collisional cross section” value (sample type: Mouse Liver, ion (formula + adduct): [C43H78NO8P-H] 1-) was 285.5 ± 12 Å².
With `CC/C=C\C/C=C\C/C=C\C/C=C\C/C=C\C/C=C\CCC(=O)O[C@H](COC(=O)CCCCCCCCCCCCCC)COP(=O)([O-])OCC[N+](C)(C)C` [PC 15:0@_22:6] the “TIMS collisional cross section” value (sample type: Mouse Liver, ion (formula + adduct): [C45H78NO8P-H] 1-) was 280.7 Å².
In the case of `CCCCCCCCCCCCCCCC(=O)O[C@H](COC(=O)CCCCCCCCCCCCCC)COP(=O)([O-])OCC[N+](C)(C)C` [PC 15:0_16:0@], the “TIMS collisional cross section” value (sample type: Human plasma, ion (formula + adduct): [C39H78NO8P+HCOO] 1-) is reported as 284.9 Å² and the “TIMS collisional cross section” value (sample type: Human plasma, ion (formula + adduct): [C39H78NO8P+OAcO] 1-) is reported as 290.8 Å².
In the case of `CCCCCCCCCCCCCCCC(=O)O[C@H](COC(=O)CCCCCCCCCCCCCC)COP(=O)([O-])OCC[N+](C)(C)C` [PC 15:0_16:0], the “TIMS collisional cross section” value (sample type: Human plasma, ion (formula + adduct): [C39H78NO8P-H] 1-) is reported as 269.8 Å².
With `CCCCCCCCCCCCCCCCCC(=O)O[C@H](COC(=O)CCCCCCCCCCCCCC)COP(=O)([O-])OCC[N+](C)(C)C` [PC 15:0_18:0@] the “TIMS collisional cross section” value (sample type: Human plasma, ion (formula + adduct): [C41H82NO8P+HCOO] 1-) was 291.1 Å².
In the case of `CCCCCC/C=C\CCCCCCCCCC(=O)O[C@H](COC(=O)CCCCCCCCCCCCCC)COP(=O)([O-])OCC[N+](C)(C)C` [PC 15:0_18:1], the “TIMS collisional cross section” value (sample type: Human plasma, ion (formula + adduct): [C41H80NO8P+HCOO] 1-) is reported as 288.8 Å².
In the case of `CCCCC/C=C\C/C=C\CCCCCCCC(=O)O[C@H](COC(=O)CCCCCCCCCCCCCC)COP(=O)([O-])OCC[N+](C)(C)C` [PC 15:0_18:2], the “TIMS collisional cross section” value (sample type: Human plasma, ion (formula + adduct): [C41H78NO8P+HCOO] 1-) is reported as 288.2 Å² and the “TIMS collisional cross section” value (sample type: Mouse Liver, ion (formula + adduct): [C41H78NO8P+HCOO] 1-) is reported as 287.1 Å².
With `CCCCC/C=C\C/C=C\C/C=C\C/C=C\CCCC(=O)O[C@H](COC(=O)CCCCCCCCCCCCCC)COP(=O)([O-])OCC[N+](C)(C)C` [PC 15:0_20:4] the “TIMS collisional cross section” value (sample type: Human plasma, ion (formula + adduct): [C43H78NO8P+HCOO] 1-) was 291 Å².
With `CC/C=C\C/C=C\C/C=C\C/C=C\C/C=C\C/C=C\CCC(=O)O[C@H](COC(=O)CCCCCCCCCCCCCC)COP(=O)([O-])OCC[N+](C)(C)C` [PC 15:0_22:6] the “TIMS collisional cross section” value (sample type: Human plasma, ion (formula + adduct): [C45H78NO8P+HCOO] 1-) was 294.4 Å² and the “TIMS collisional cross section” value (sample type: Mouse Liver, ion (formula + adduct): [C45H78NO8P+HCOO] 1-) was 294.4 Å².
In the case of `CCCCC/C=C\CCCCCCCC(=O)OC[C@H](COP(=O)([O-])OCC[N+](C)(C)C)OC(=O)CCCCCCCCC/C=C\CCCCCCCC` [PC 15:1@_20:1], the “TIMS collisional cross section” value (sample type: Mouse Liver, ion (formula + adduct): [C43H82NO8P-H] 1-) is reported as 279.1 Å².
